Assay results published in patent US7378387B2, “Method of suppressing immune response by reducing intracellular content of glutathione in macrophages and monocytes” (Ajinomoto Co., Inc., priority 1997, dated 2008).

What was measured:
[1] = test system: dextran sulfate-induced inflammatory bowel disease; assay: Dextran sulfate-induced inflammatory bowel disease in γc knock out mice (Example 14); format: in vivo
Experimental: To 3-week-old γc knock out mice with +/− genotypes were administered 20 μg[…] of (NAC-OMe)2 three times a week for 2 weeks. On day 16, the free drinking of 1% dextran sulfate water was started. […] The γc knock out mice and their wild-type male mice (+/Y- and −/Y) and female mice (+/+, +/− and −/−) were caused to freely drink water containing 1% dextran sulfate as a inflammatory bowel disease model.

[2] = test system: IL-6; assay: IL-6 in macrophage culture supernatant, advanced tumor-bearing mice (Example 4); format: in vivo, CDF1 mice; settings: oral 1 mg/0.5 ml/h for 10 days, COLON 26 mice; control mice 5,200 pg/ml
Experimental: (§1) A stimulator was added to 1×10^6 MΦ, and the incubation was conducted at 37° C. for 2 days in a CO2 incubator. After centrifugation, the culture supernatant was collected.
(§2) The amount of IL-6 was determined using IL-6 dependent mouse hybridoma MH60 cells (J. Eur. Immunol., vol. 18, p. 951, 1988). One hundred microliters of the culture supernatant were added to 100 μl of the MH60 cell suspension adjusted to 1×10^5 cells/ml in a 10% FCS-containing RPMI medium, and the mixed solution was incubated at 37° C. for 2 days in a CO2 incubator. Subsequently, 10 μl of MTT (supplied by Sigma Co.) solution adjusted to a concentration of 5 mg/ml in the same medium were added thereto, and the reaction was conducted at 37° C. for 5 hours. After the completion of the reaction, the centrifugation was conducted. The supernatant (160 μl) was removed, and 100 μl of a mixture of hydrochloric acid and propanol were added to the residue. The suspension was conducted using a pipetman to dissolve the cells. Immediately after the dissolution, an absorbance of 570 nm was measured with an immunometer (supplied by Bio-Rad).
The COLON 26 transplantable tumor was implanted subcutaneously in the back portion of CDF1 mice at a density of 5×10^5 cells/mouse. […] Glutathione ethyl ester was orally administered to the mice every day in a dosage of 1 mg/0.5 ml/h. This oral administration was continued for 10 days. […]

[3] = test system: IL-12; assay: IL-12 production by MΦ induced by intraperitoneal injection of substances (Example 7); format: in vivo, mouse
Experimental: The amount of IL-12 was determined through bioassay using cells of human T cell strain 2D6 (J. Leukocyte Biology, vol. 61, p. 346, 1997).
2D6 cells which had been incubated in an RPMI 1640 medium containing 500 pg/ml of recombinant human IL-12, 50 μM of 2-mercaptoethanol and 10% FCS (fetal calf serum) were moved to a tube, and centrifugally washed three times with the above-mentioned medium without IL-12 and cell density was adjusted to 1×10^5/ml. The cell suspension was added in an amount of 100 μl each to a 96-well flat bottom plate containing a sample serially diluted in advance with an RPMI 1640 medium containing 50 μM of 2-mercaptoethanol and 10% FCS in an amount of 100 μl each. Subsequently, the mixture was charged into a 5% […] incubator of 37° C., and incubated for 48 hours. For final 6 hours, ^3H-TdR was pulsed (a substance adjusted to 370 kBq/ml in an RPMI 1640 medium containing 50 μM of 2-mercaptoethanol and 10% FCS was added in an amount of 50 μl each). The cells a harvested, and the radioactivity was measured using a β counter (Matrix 96, supplied by Packard).
It was examined whether there is a difference in the IL-12 production between LNT-induced MΦ and LPS-induced MΦ. […] Next, the same analysis was conducted using MΦ induced by intraperitoneally injecting substances for changing the GSH content in cells.

[4] = test system: IL-6; assay: IL-6 in culture supernatant of macrophage-like cells from rheumatoid arthritis patients (Example 17); format: cell-based, human; settings: added at 2 mM
Experimental: as §1, §2
By the same manner as in Example 3, macrophage-like cells were collected from tissues of rheumatoid arthritis patients, and were then suspended and adjusted in a phenol red-free RPMI 1640 culture medium supplemented with 10% fetal calf serum to 3×10^6 cells/ml. […]

[5] = test system: reduced glutathione in intraperitoneal macrophages; assay: Reduced glutathione in intraperitoneal macrophages of NOD mice by ACAS (Example 22); format: in vivo; settings: doses given per substance
[6] = test system: reductive glutathione in MΦ; assay: GSH content in MΦ by ACAS after NAC drinking and/or IL-2 administration (Example 8); format: in vivo, DBA/2 female mice; settings: NAC 1 mg/ml in city water; IL-2 intraperitoneally twice a day every two days for two weeks; day 14
Experimental: Three-hundred microliters of a cell suspension adjusted concentration of 3×10^5 cells/ml in an RPMI 1640 medium (phenol red-free) were charged into a chambered coverglass (#136439, supplied by Nunc), and incubated at 37° C. for 2 hours using a CO2 incubator. The culture solution was washed with the medium, and 300 μl of monochlorobimane (supplied by Molecular Plobe) adjusted to 10 μM in the same medium were added thereto. The mixture was charged into a CO2 incubator of 37° C., and the reaction was conducted for 30 minutes. The fluorescent intensity was measured with ACAS. In ACAS, a UV laser was used.
Two groups, namely, a group of 8-week-old DBA/2 female mice which were caused to freely drink city water as in Example 6, and a group of the same female mice which were caused to freely drink city water containing 1 mg/ml of NAC, were prepared. Further, the two groups of the-above-mentioned mice to which human recombinant IL-2 in an amount of 2 pg/0.5 ml/h was intraperitoneally administered twice a day, every two days for two weeks were provided.

[7] = test system: IL-6; assay: IL-6 production of MΦ after NAC drinking and/or IL-2 administration (Example 8); format: in vivo, DBA/2 female mice; settings: stimulated with LPS and IFNγ; control mice 1,240 pg/ml
Experimental: The amount of IL-6 was determined using IL-6 dependent mouse hybridoma MH60 cells (J. Eur. Immunol., vol. 18, p. 951, 1988). One hundred microliters of the culture supernatant were added to 100 μl of the MH60 cell suspension adjusted to 1×10^5 cells/ml in a 10% FCS-containing RPMI medium, and the mixed solution was incubated at 37° C. for 2 days in a CO2 incubator. Subsequently, 10 μl of MTT (supplied by Sigma Co.) solution adjusted to a concentration of 5 mg/ml in the same medium were added thereto, and the reaction was conducted at 37° C. for 5 hours. […] Immediately after the dissolution, an absorbance of 570 nm was measured with an immunometer (supplied by Bio-Rad).
Two groups, namely, a group of 8-week-old DBA/2 female mice which were caused to freely drink city water as in Example 6, and a group of the same female mice which were caused to freely drink city water containing 1 mg/ml of NAC, were prepared. […] On day 14, the IL-12 production from MΦ was measured in the same manner as in Example 6.
Peritoneal cells were harvested from four groups of the mice, and stimulated with LPS and IFNγ. Then, the NO production, the IL-6 production and the IL-12 production were measured.

COC(=O)[C@H](CSSC[C@H](NC(C)=O)C(=O)OC)NC(C)=O [(NAC-OMe)2, N,N′-diacetylcystine dimethyl ester]
occurrence rate of the inflammatory bowel disease ([1]; +/+ mice, non-administration 80%): 60% | occurrence rate of the inflammatory bowel disease, Day 30 ([1]; +/− mice, 20 μg/h three times a week for 2 weeks, 1% dextran sulfate water from day 16, non-administration 100%): 16.6% | survival rate ([1]; +/− mice, 20 μg/h three times a week for 2 weeks, 1% dextran sulfate water, non-administration 57%): 100%

CCOC(=O)CNC(=O)[C@H](CS)NC(=O)CC[C@H](N)C(=O)O [GSH-OEt, glutathione monoethyl ester]
amount of IL-6 in macrophage culture supernatant [2]: 642 pg/mL | IL-12 production ([3]; MΦ induced by intraperitoneal injection of the substance, stimulation with LPS and IFNγ): 3,570 pg/ml | IL-12 production of substance-induced MΦ, without DEM or IL-4 ([3]; baseline values of the DEM and IL-4 experiments): 490 pg/mL | IL-6 in the culture supernatant of the macrophages [4]: prominently decreased | relative ratio of oxidative macrophages compared with saline-dosed NOD mice ([5]; intraperitoneal dosing on alternate days from age 3-4 weeks): same action is also observed | relative ratio of oxidative macrophages compared with saline-dosed NOD mice ([5]; oral dosing on alternate days from age 3-4 weeks): same action is also observed | relative ratio of oxidative macrophages compared with saline-dosed NOD mice ([5]; oral dosing on alternate days from age 3-4 weeks, listed as glutathione ethyl ester): decreased

CC(=O)N[C@@H](CS)C(=O)O [NAC, N-acetylcysteine, reference compound]
content of reductive glutathione in MΦ (ACAS) [6]: markedly increased | amount of IL-6 in the macrophage culture supernatant [7]: 320 pg/mL
